Common to all, as to test: NCI-60 cell line screen, 48 h
Assay [1] has as its system HT29 colon.
Assay [2] deals with SK-MEL-5 melanoma.
Assay [3] concerns EKVX NSCLC.
The test system of assay [4] is SF-295 CNS.
Assay [5] relates to SNB-75 CNS.
The test system of assay [6] is CAKI-1 renal.
For assay [7], the system named is DLD-1 colon.
The subject of assay [8] is SN12C renal.
For assay [9], the system named is NCI/ADR-RES ovarian.
Assay [10] concerns LXFL 529 NSCLC.
The test system of assay [11] is PC-3 prostate.

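Following 48 hours of exposure in 96-well plates, responses at five concentrations were used to interpolate endpoints linearly. GI50 marks 50% less growth. TGI marks complete inhibition of growth.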

The record followed here is PubChem BioAssay (NCI).

On to `Cc1ccc(N2C(=O)C3CSCN3C2=O)cc1` (stereo not given), for which the TGI in [1], in assay [2], in assay [3], in [4], in assay [5] and in [6] was more than 100 µM throughout. Further, the TGI in assay [7], in [8] and in assay [9] was more than 100 µM each time.
Regarding `Cc1cc2c(=O)c3ccc(Cl)cc3[nH]c2c(C(N)=O)c1C`, the TGI in assay [1], in [2], in assay [3], in [4], in assay [5] and in assay [10] was more than 100 µM throughout. Moreover, the TGI in assay [7] and in assay [8] was more than 100 µM each time.
Regarding `CCC1=C(C[C@H]2NCCc3cc(OC)c(OC)cc32)C[C@H]2c3cc(OC)c(OC)cc3CCN2C1`, the TGI stood at 0.182 µM in assay [1]; 0.0551 µM in assay [2]; 0.175 µM in [3]; 0.189 µM in assay [4]; 0.107 µM in assay [5]; 6.4 µM in assay [10]. For the same compound, the TGI was found to be 0.199 µM in assay [6], 0.349 µM in assay [7] and 0.193 µM in [8].
In the case of `COC(=O)CCC(=O)NC1=C(Nc2ccccc2)C(=O)c2ccccc2C1=O`, the TGI was 35.7 µM in assay [1]; 3.3 µM in assay [2]; 34.2 µM in assay [3]; 29.9 µM in [4]; 65.2 µM in assay [11]; 33.2 µM in assay [5]. Also, the values for the TGI in assay [6], in [8] and in assay [9] were 27.5 µM, 28.9 µM and 39.9 µM, respectively.
Consider `CSc1nnc(SCc2nn3c(=O)cc(C)nc3s2)s1`, for which the TGI in assay [1], in [2], in assay [3], in assay [4], in [11] and in assay [5] was more than 100 µM each time. The TGI in assay [6], in [8] and in assay [9] was more than 100 µM throughout.
Consider `O=C(O)CSC1=NNC2(C(=O)N1)c1ccccc1-c1ccccc12`, for which the TGI in [1], in assay [2], in [3], in [4], in assay [11] and in [5] was more than 10 µM in each case. The TGI in assay [6], in assay [8] and in [9] was more than 10 µM throughout.
As for `COc1ccc(OC)c2c(C)ccnc12`, the TGI in assay [1] was more than 100 µM; in [2], more than 84.4 µM; in assay [3], more than 100 µM; in [4], 95.3 µM; in assay [11], more than 100 µM; in assay [5], more than 100 µM. Moreover, the TGI was more than 100 µM in assay [6], more than 100 µM in [8] and 67.4 µM in assay [9].
For the compound `C=C(Br)C[N+]12CN3CN(CN(C3)C1)C2`, the TGI in assay [1], in assay [2], in assay [3], in assay [4], in [11] and in assay [5] was more than 100 µM in each case. For the same compound, the TGI in assay [6], in assay [8] and in assay [9] was more than 100 µM throughout.
Regarding `O=C1CCCCC/C1=C\c1cccc(F)c1`, the TGI in assay [1], in [2], in assay [3], in assay [4], in assay [11] and in assay [5] was more than 100 µM throughout. Also, the TGI in assay [6], in [8] and in assay [9] was more than 100 µM throughout.
As to `O=C(Nc1ccc(-n2cc(-c3ccncc3)c(-c3ccc(O)c(Cl)c3)n2)cc1)c1ccc(Cl)c(C(F)(F)F)c1`, the GI50 in assay [1] was 1.2 µM; in assay [2], 1.46 µM; in assay [3], 4.83 µM; in assay [4], 1.35 µM; in assay [11] it was 1.37 µM; in assay [5], 2.23 µM. Further, the GI50 in assay [6] was 2.05 µM; in assay [8], 2.57 µM; in assay [9] it was 2.57 µM. The TGI was 2.72 µM in [1]; 5.67 µM in assay [2]; more than 50 µM in [3]; 4.15 µM in assay [4]; more than 50 µM in assay [11]; more than 50 µM in [5]. In addition, the TGI in assay [6] was 14.7 µM; in assay [8] it was more than 50 µM; in assay [9] it was more than 50 µM.
Consider `COC(=O)C1C(=O)CC(C)(O)C(C(=O)OC)C1c1ccc(N(C)C)cc1` (stereo not given), for which the TGI in [1], in assay [2], in assay [3], in assay [4], in assay [11] and in [5] was more than 100 µM each time. Besides, the TGI in assay [6], in assay [8] and in assay [9] was more than 100 µM throughout.
Regarding `Cc1nc2ccc(Br)cc2c(=O)n1-c1ccc(N)cc1`, the TGI in assay [1], in [2], in assay [3], in assay [4], in [11] and in [5] was more than 100 µM each time. For the same compound, the TGI in assay [6], in assay [8] and in assay [9] was more than 100 µM throughout.
Take `O=C1c2ccncc2C(=O)c2c(O)ccc(O)c21`: the TGI in assay [1] was determined as 7.74 µM; in [3], 32.1 µM; in assay [4], 25.1 µM; in assay [5] it was 49.1 µM; in [10], 22 µM; in assay [8], 16.1 µM.
Turning to `CC(C)(C)OC(=O)C(C#N)C(=O)c1ccc(C(=O)O)[nH]1` (stereo not given), the TGI in [1], in [2], in [3], in assay [4], in assay [11] and in assay [5] was more than 100 µM throughout. In addition, the TGI was 41.5 µM in [6], more than 100 µM in assay [8] and 38.5 µM in assay [9].
Turning to `CC/C=C/c1cc2c(cc1O)CCC1C2CC[C@@]2(C)C1CC[C@@H]2O` (stereo not given in full), the TGI in [1] was 21.1 µM; in assay [2], 11.3 µM; in assay [3], 14.3 µM; in [4], 1.48 µM; in assay [11], 11.6 µM; in [5] it was 8.14 µM. Further, the TGI was 13.7 µM in assay [6], 18.7 µM in [8] and 5.67 µM in assay [9]. In addition, in assay [8], the GI50 is 5.13 µM.
For `c1ccc2c[n+](CCCC[n+]3ccc4ccccc4c3)ccc2c1`, the TGI in assay [1], in assay [2], in [3], in [4], in assay [11] and in assay [5] was more than 100 µM each time. Also, the TGI in [6], in assay [8] and in assay [9] was more than 100 µM each time.
